Measured values as given in ChEMBL document CHEMBL1201862, “PubChem BioAssay data set” (2004).
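In this assay, cells in 96-well plates receive the compound at five concentrations for 48 hours. Endpoints are linearly interpolated between the surrounding concentrations. GI50 marks 50% less growth.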 Calls of active or inactive are those of the source. No stated cut-off is given here; in the data, active = GI50 up to about 1.1 µM and inactive = higher.

Tests used:
Experiment in all cases: inhibition of tumour cell growth, NCI panel, 48 h
MCF7 = system: MCF7
OVCAR-5 = system: OVCAR-5
COLO 205 = system: COLO 205
SNB-75 = system: SNB-75
NCI/ADR-RES = system: NCI/ADR-RES
SF-295 = system: SF-295
TK-10 = system: TK-10
OVCAR-4 = system: OVCAR-4
MDA-N = system: MDA-N
KM12 = system: KM12
IGROV-1 = system: IGROV-1
SN12C = system: SN12C
A549 = system: A549
NCI-H522 = system: NCI-H522
SR = system: SR
HCC 2998 = system: HCC 2998
MDA-MB-435 = system: MDA-MB-435
DU-145 = system: DU-145
K562 = system: K562
MDA-MB-231 = system: MDA-MB-231

| Structure (SMILES) | GI50 (MCF7) | GI50 (OVCAR-5) | GI50 (COLO 205) | GI50 (SNB-75) | GI50 (NCI/ADR-RES) | GI50 (SF-295) | GI50 (TK-10) | GI50 (OVCAR-4) | GI50 (MDA-N) | GI50 (KM12) | GI50 (IGROV-1) | GI50 (SN12C) | GI50 (A549) | GI50 (NCI-H522) | GI50 (SR) | GI50 (HCC 2998) | GI50 (MDA-MB-435) | GI50 (DU-145) | GI50 (K562) | GI50 (MDA-MB-231) |
| --- | --- | --- | --- | --- | --- | --- | --- | --- | --- | --- | --- | --- | --- | --- | --- | --- | --- | --- | --- | --- |
| O=[N+]([O-])c1ccc2nc(-c3ccccn3)c(-c3ccccn3)nc2c1 | 57.7 µM (inactive) | > 100 µM (inactive) | 30.5 µM (inactive) | > 100 µM (inactive) | > 100 µM (inactive) | 96.8 µM (inactive) | > 100 µM (inactive) | > 100 µM (inactive) | 45.4 µM (inactive) | > 100 µM (inactive) | 94.6 µM (inactive) | > 100 µM (inactive) | 57.4 µM (inactive) | 44.9 µM (inactive) | 33.1 µM (inactive) | > 100 µM (inactive) | > 100 µM (inactive) | > 100 µM (inactive) |  |  |
| CCCCc1ccc(-n2sc3ncc(-c4ccccc4)cc3c2=O)cc1 | > 100 µM (inactive) | > 100 µM (inactive) | > 100 µM (inactive) | > 100 µM (inactive) | > 100 µM (inactive) | > 100 µM (inactive) | > 100 µM (inactive) | 42.1 µM (inactive) | > 100 µM (inactive) | > 100 µM (inactive) | > 100 µM (inactive) | > 100 µM (inactive) | > 100 µM (inactive) |  | > 100 µM (inactive) | > 100 µM (inactive) | > 100 µM (inactive) | > 100 µM (inactive) | > 100 µM (inactive) |  |
| CNc1nc(=S)[nH]c2sc3c(c12)CCCC3 | > 75 µM (inactive) | > 75 µM (inactive) | > 75 µM (inactive) | > 75 µM (inactive) | > 75 µM (inactive) | > 75 µM (inactive) | > 75 µM (inactive) | > 75 µM (inactive) |  | > 75 µM (inactive) | > 75 µM (inactive) | > 75 µM (inactive) |  | > 75 µM (inactive) | > 75 µM (inactive) | > 75 µM (inactive) | > 75 µM (inactive) | > 75 µM (inactive) | > 75 µM (inactive) | > 75 µM (inactive) |
| COC(=O)c1c2c(cc3c1CC1(Cc4cc5c(cc4C1)CCCC5)C3)CCCC2 | > 100 µM (inactive) | > 100 µM (inactive) | > 100 µM (inactive) | 0.155 µM (active) | > 100 µM (inactive) | > 100 µM (inactive) | > 100 µM (inactive) | > 100 µM (inactive) | > 100 µM (inactive) | > 100 µM (inactive) | > 100 µM (inactive) | > 100 µM (inactive) | 46.3 µM (inactive) | > 100 µM (inactive) | 27.5 µM (inactive) | > 100 µM (inactive) | > 100 µM (inactive) |  | > 100 µM (inactive) | > 100 µM (inactive) |
| Cc1cc(-c2cccc3ccccc23)c(C#N)c(=S)n1C1OC(CO)C(O)C(O)C1O (centres undefined) | > 100 µM (inactive) | > 100 µM (inactive) | > 100 µM (inactive) | 0.0379 µM (active) | > 100 µM (inactive) | > 100 µM (inactive) | > 100 µM (inactive) | 60.3 µM (inactive) | > 100 µM (inactive) | > 100 µM (inactive) | > 100 µM (inactive) | 82.8 µM (inactive) | > 100 µM (inactive) |  | 98.4 µM (inactive) | > 100 µM (inactive) | > 100 µM (inactive) |  |  | > 100 µM (inactive) |
| CC1CN=C(Nc2ccc(F)cc2F)S1 (centres undefined) | > 100 µM (inactive) | > 100 µM (inactive) | > 100 µM (inactive) | 70.3 µM (inactive) | > 100 µM (inactive) | > 100 µM (inactive) | > 100 µM (inactive) | > 100 µM (inactive) | > 100 µM (inactive) | > 100 µM (inactive) | > 100 µM (inactive) | > 100 µM (inactive) | > 100 µM (inactive) |  | > 100 µM (inactive) | > 100 µM (inactive) |  | > 100 µM (inactive) | > 100 µM (inactive) | > 100 µM (inactive) |
| NC1CNC(=O)c2cscc21 (centres undefined) | > 100 µM (inactive) | > 100 µM (inactive) | > 100 µM (inactive) |  | 3.01 µM (inactive) | > 100 µM (inactive) |  | > 100 µM (inactive) | > 100 µM (inactive) | > 100 µM (inactive) | > 100 µM (inactive) | > 100 µM (inactive) | > 100 µM (inactive) | > 100 µM (inactive) | > 100 µM (inactive) | > 100 µM (inactive) | > 100 µM (inactive) | > 100 µM (inactive) | > 100 µM (inactive) |  |
| O=C(O)c1ccc(NC(NC(=O)C(C(F)(F)F)C(F)(F)F)(C(F)(F)F)C(F)(F)F)cc1 |  | > 100 µM (inactive) | > 100 µM (inactive) | > 100 µM (inactive) | > 100 µM (inactive) |  | > 100 µM (inactive) |  | > 100 µM (inactive) |  | > 100 µM (inactive) | > 100 µM (inactive) | > 100 µM (inactive) |  | > 100 µM (inactive) | > 100 µM (inactive) | > 100 µM (inactive) |  | > 100 µM (inactive) |  |
| O=C(CBr)c1ccc2cc(Br)c3ccccc3c2c1 | 26.4 µM (inactive) | 24.7 µM (inactive) | 24.1 µM (inactive) | 25.6 µM (inactive) | 36.7 µM (inactive) | 24.4 µM (inactive) | 21 µM (inactive) | 25.3 µM (inactive) |  | 17.8 µM (inactive) | 29.6 µM (inactive) |  | 27.2 µM (inactive) | 16.4 µM (inactive) | 12.1 µM (inactive) | 54.2 µM (inactive) | 19.9 µM (inactive) | 22.8 µM (inactive) | 26.7 µM (inactive) | 18.2 µM (inactive) |
| C=C1C(=O)OC2C3C(=C)[C@@H](OC(C)=O)CC3C(C)=CC(OC(=O)C(C)(OC(C)=O)C(C)OC(C)=O)[C@@H]12 (some centres undefined) | 11.5 µM (inactive) | 21.9 µM (inactive) | 14.8 µM (inactive) | 18.9 µM (inactive) |  | 61.2 µM (inactive) | 14.1 µM (inactive) | 13.3 µM (inactive) | 14.9 µM (inactive) | 16.8 µM (inactive) | 18.5 µM (inactive) | 15.7 µM (inactive) | 24.3 µM (inactive) | 2.52 µM (inactive) | 22.2 µM (inactive) | 18.6 µM (inactive) | 13.5 µM (inactive) | 16.1 µM (inactive) | 7.29 µM (inactive) | 18.5 µM (inactive) |
| [O-][Cl+3]([O-])([O-])[O-].[O-][Cl+3]([O-])([O-])[O-].c1ccn2c(N3CCCC3)[n+]3c4ccccc4n4c(N5CCCC5)[n+]5ccccc5c4c3c2c1 | 67.1 µM (inactive) | > 100 µM (inactive) | 20 µM (inactive) | 18.7 µM (inactive) | > 100 µM (inactive) | 46.3 µM (inactive) | > 100 µM (inactive) | > 100 µM (inactive) |  | 40.3 µM (inactive) | 42.7 µM (inactive) | 8 µM (inactive) | > 100 µM (inactive) | 64.1 µM (inactive) | 38.1 µM (inactive) | 78.3 µM (inactive) | > 100 µM (inactive) | > 100 µM (inactive) | 35.8 µM (inactive) | > 100 µM (inactive) |
